Values of other authors as cited in patent US20220241165A1, “ORAL CARE COMPOSITIONS COMPRISING OXALIC ACID” (The Procter & Gamble Company, priority 2021, published 2022).

pKa: 4.1
Structure (SMILES): O=C(O)C(=O)O [oxalate ion]
